Values of other authors, collected in paper PMC8035703, “Effect of Synchronous Versus Sequential Regimens on the Pharmacokinetics and Biodistribution of Regorafenib with Irradiation” (Pharmaceutics, 2021).

Set-up: method as in PMID 26867886, PMID 28202227, PMID 24971021
Conditions: HCC patients who received RT concurrently or sequentially with sorafenib; cited from earlier work

## CNC(=O)c1cc(Oc2ccc(NC(=O)Nc3ccc(Cl)c(C(F)(F)F)c3)cc2)ccn1 [sorafenib]
  Incidence of adverse effects: > 30%
